Measurements published in the NIST ThermoML archive (doi:10.1016/j.jct.2014.03.021).
± gives the expanded uncertainty stated by the source.

Legend:
[1] = refractive index (Na D-line) (dimensionless); details: 101.33 kPa, Liquid, Standard Abbe refractometry
[2] = 101.33 kPa, Liquid; for electrical conductivity: Alternating current cell with electrodes; for speed of sound: Sing-around technique in a fixed-path interferometer; for mass density: Vibrating tube method

C[C@H](O)C(=O)[O-].C[N+](C)(C)CCO
Details | electrical conductivity, [2] [S/m] | mass density, [2] [kg/m3] | refractive index, [1] | speed of sound, [2] [m/s]
293.15 K | 0.0138 ± 0.00083 | 1143.46 ± 7.1 | 1.48146 ± 0.001 | 1935.6 ± 5.2
298.15 K | 0.0219 ± 0.0013 | 1140.3 ± 7.1 | 1.48056 ± 0.001 | 1911.8 ± 5.2
303.15 K | 0.0327 ± 0.002 | 1137.16 ± 7 | 1.47931 ± 0.001 | 1892 ± 5.2
308.15 K | 0.0455 ± 0.0027 | 1134.04 ± 7 | 1.47808 ± 0.001 | 1874.8 ± 5.2
313.15 K | 0.0647 ± 0.0039 | 1130.94 ± 6.9 | 1.47676 ± 0.001 | 1859.1 ± 5.2
318.15 K | 0.0897 ± 0.0054 | 1127.86 ± 6.9 | 1.47544 ± 0.001 | 1844.8 ± 5.2
323.15 K | 0.109 ± 0.0066 | 1124.79 ± 6.9 | 1.47418 ± 0.001 | 1831.1 ± 5.2

O [water]
Details | mass density, [2] [kg/m3] | refractive index, [1] | speed of sound, [2] [m/s]
293.15 K | 998.738 ± 0.11 | 1.33299 ± 0.00031 | –
298.15 K | 997.576 ± 0.11 | 1.33251 ± 0.00031 | –
303.15 K | 996.181 ± 0.11 | 1.33197 ± 0.00031 | –
308.15 K | 994.563 ± 0.11 | 1.33135 ± 0.00031 | –
313.15 K | 992.744 ± 0.11 | 1.33065 ± 0.00031 | 1528.8 ± 1.2
318.15 K | 990.737 ± 0.11 | 1.3299 ± 0.00031 | –
323.15 K | 988.556 ± 0.11 | 1.32911 ± 0.00031 | 1542.3 ± 1.2
